Experimental data as given in patent US9199962B2, “Substituted azaheterocycles for the treatment of cancer” (Merck Patent GmbH, priority 2011, dated 2015).

Target: T1, GST-FAK (N-terminal GST fusion with truncated human FAK (376-1052 (end) amino acids)) (Homo sapiens, UniProt Q05397)
T1 construct: truncated human FAK (376-1052 (end) amino acids)
Test: Biochemical enzyme assay for FAK activity (Caliper LC3000 mobility shift)
Settings: Table 5; 100 uM ATP; read-out: FAK IC50
Procedure, shortened: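 Inhibitor dose series in DMSO were incubated 90 min at 25 °C with truncated GST-tagged human FAK (0.067 ng/µl) and FITC-labelled peptide substrate (1 µM), with ATP at 100 µM and FERM peptide at 1 mM (pH 7.5 HEPES). After EDTA quench, phosphorylated and unphosphorylated peptides were resolved electrophoretically. Percent conversion was fitted for IC50.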

T1 sequence (Q05397 376-1052): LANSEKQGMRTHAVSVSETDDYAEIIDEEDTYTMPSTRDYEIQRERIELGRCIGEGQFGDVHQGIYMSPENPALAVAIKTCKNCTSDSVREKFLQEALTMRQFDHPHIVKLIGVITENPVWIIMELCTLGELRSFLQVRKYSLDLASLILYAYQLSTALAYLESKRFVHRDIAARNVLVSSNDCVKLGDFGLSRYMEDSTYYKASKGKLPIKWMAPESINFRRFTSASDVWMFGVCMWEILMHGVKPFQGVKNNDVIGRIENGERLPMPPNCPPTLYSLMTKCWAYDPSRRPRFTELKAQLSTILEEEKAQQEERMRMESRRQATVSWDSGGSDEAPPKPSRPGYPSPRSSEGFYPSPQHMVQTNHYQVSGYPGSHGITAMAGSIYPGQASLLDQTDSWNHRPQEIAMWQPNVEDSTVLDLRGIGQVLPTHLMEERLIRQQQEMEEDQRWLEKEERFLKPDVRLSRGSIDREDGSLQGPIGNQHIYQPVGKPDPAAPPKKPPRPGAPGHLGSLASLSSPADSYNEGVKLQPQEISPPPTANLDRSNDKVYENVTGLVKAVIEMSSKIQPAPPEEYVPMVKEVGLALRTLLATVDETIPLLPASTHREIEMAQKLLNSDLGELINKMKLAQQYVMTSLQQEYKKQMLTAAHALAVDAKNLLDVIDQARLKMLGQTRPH

Row | Compound | IC50 [nM]
1 | CC(=O)NCCNC(=O)c1cc(NCc2ncccc2F)nc(-c2cncc(C(F)(F)F)c2)n1 [Compound 189, 6-[(3-Fluoro-pyridin-2-ylmethyl)-amino]-2-(5-trifluoromethyl-pyridin-3-yl)-pyrimidine-4-carboxylic acid (2-acetylamino-ethyl)-amide] | 100 to 1000
2 | NC(=O)CNC(=O)c1cc(NCc2ncccc2F)nc(-c2cncc(C(F)(F)F)c2)n1 [Compound 190, 6-[(3-Fluoro-pyridin-2-ylmethyl)-amino]-2-(5-trifluoromethyl-pyridin-3-yl)-pyrimidine-4-carboxylic acid carbamoylmethyl-amide] | 100 to 1000
3 | FC(F)(F)c1cccc(CCNc2ccnc(-c3cncc(C(F)(F)F)c3)n2)c1 [Compound 191, [2-(3-Trifluoromethyl-phenyl)-ethyl]-[2-(5-trifluoromethyl-pyridin-3-yl)-pyrimidin-4-yl]-amine] | 1000 to 10000
4 | COc1cncc(-c2nccc(NCCc3ccc(F)cc3)n2)c1 [Compound 192, [2-(4-Fluoro-phenyl)-ethyl]-[2-(5-methoxy-pyridin-3-yl)-pyrimidin-4-yl]-amine] | 1000 to 10000
5 | COc1cncc(-c2nccc(NCc3ccccc3-c3ccccc3S(C)(=O)=O)n2)c1 [Compound 193, (2′-Methanesulfonyl-biphenyl-2-ylmethyl)-[2-(5-methoxy-pyridin-3-yl)-pyrimidin-4-yl]-amine] | > 10000
6 | COc1cncc(-c2nccc(NCCc3cccc(C(F)(F)F)c3)n2)c1 [Compound 194, [2-(5-Methoxy-pyridin-3-yl)-pyrimidin-4-yl]-[2-(3-trifluoromethyl-phenyl)-ethyl]-amine] | > 10000
7 | Fc1ccc(CCNc2ccnc(-c3cncc(C(F)(F)F)c3)n2)cc1 [Compound 195, [2-(4-Fluoro-phenyl)-ethyl]-[2-(5-trifluoromethyl-pyridin-3-yl)-pyrimidin-4-yl]-amine] | 100 to 1000
8 | CS(=O)(=O)c1ccccc1-c1ccccc1CNc1ccnc(-c2cncc(C(F)(F)F)c2)n1 [Compound 196, (2′-Methanesulfonyl-biphenyl-2-ylmethyl)-[2-(5-trifluoromethyl-pyridin-3-yl)-pyrimidin-4-yl]-amine] | 1000 to 10000
9 | CN1CCCC1CCNc1ccnc(-c2cncc(C(F)(F)F)c2)n1 (stereo not shown) [Compound 197, [2-(1-Methyl-pyrrolidin-2-yl)-ethyl]-[2-(5-trifluoromethyl-pyridin-3-yl)-pyrimidin-4-yl]-amine] | > 10000
10 | FC(F)(F)c1cncc(-c2nccc(NCCc3ccccc3Cl)n2)c1 [Compound 198, [2-(2-Chloro-phenyl)-ethyl]-[2-(5-trifluoromethyl-pyridin-3-yl)-pyrimidin-4-yl]-amine] | 1000 to 10000
11 | COc1cncc(-c2nccc(NCCN3CCCC3=O)n2)c1 [Compound 199, 1-{2-[2-(5-Methoxy-pyridin-3-yl)-pyrimidin-4-ylamino]-ethyl}-pyrrolidin-2-one] | > 10000
12 | O=C1CCCN1CCNc1ccnc(-c2cncc(C(F)(F)F)c2)n1 [Compound 200, 1-{2-[2-(5-Trifluoromethyl-pyridin-3-yl)-pyrimidin-4-ylamino]-ethyl}-pyrrolidin-2-one] | > 10000
13 | COc1ccccc1CCNc1ccnc(-c2cncc(C(F)(F)F)c2)n1 [Compound 201, [2-(2-Methoxy-phenyl)-ethyl]-[2-(5-trifluoromethyl-pyridin-3-yl)-pyrimidin-4-yl]-amine] | 1000 to 10000
14 | COc1cncc(-c2nccc(NCCc3ccccc3OC)n2)c1 [Compound 202, [2-(2-Methoxy-phenyl)-ethyl]-[2-(5-methoxy-pyridin-3-yl)-pyrimidin-4-yl]-amine] | 1000 to 10000
15 | COc1cncc(-c2nccc(NCCc3ccccc3Cl)n2)c1 [Compound 203, [2-(2-Chloro-phenyl)-ethyl]-[2-(5-methoxy-pyridin-3-yl)-pyrimidin-4-yl]-amine] | 1000 to 10000
16 | COc1cncc(-c2nccc(NCc3ccc(F)cc3C(F)(F)F)n2)c1 [Compound 204, (4-Fluoro-2-trifluoromethyl-benzyl)-[2-(5-methoxy-pyridin-3-yl)-pyrimidin-4-yl]-amine] | < 100

Row | Compound | IC50 [nM]
17 | Fc1ccccc1CNc1ccnc(-c2cccnc2F)n1 [Compound 205, (2-Fluoro-benzyl)-[2-(2-fluoro-pyridin-3-yl)-pyrimidin-4-yl]-amine] | 1000 to 10000
18 | Cc1cc(F)ncc1-c1nccc(NCc2ccccc2F)n1 [Compound 206, (2-Fluoro-benzyl)-[2-(6-fluoro-4-methyl-pyridin-3-yl)-pyrimidin-4-yl]-amine] | > 10000
19 | Fc1ccc(-c2nccc(NCc3ccccc3F)n2)cn1 [Compound 207, (2-Fluoro-benzyl)-[2-(6-fluoro-pyridin-3-yl)-pyrimidin-4-yl]-amine] | > 10000
20 | Fc1cccnc1CNc1ccnc(-c2cncc(C(F)(F)F)c2)n1 [Compound 208, (3-Fluoro-pyridin-2-ylmethyl)-[2-(5-trifluoromethyl-pyridin-3-yl)-pyrimidin-4-yl]-amine] | 100 to 1000
21 | Fc1cnc(CNc2ccnc(-c3cncc(C(F)(F)F)c3)n2)c(F)c1 [Compound 209, (3,5-Difluoro-pyridin-2-ylmethyl)-[2-(5-trifluoromethyl-pyridin-3-yl)-pyrimidin-4-yl]-amine] | < 100
22 | Fc1ccc(CNc2ccnc(-c3cccnc3)n2)c(F)c1 [Compound 210, (2,4-Difluoro-benzyl)-(2-pyridin-3-yl-pyrimidin-4-yl)-amine] | 100 to 1000
23 | Cc1cc(F)ncc1-c1nccc(NCc2ccc(F)cc2F)n1 [Compound 211, (2,4-Difluoro-benzyl)-[2-(6-fluoro-4-methyl-pyridin-3-yl)-pyrimidin-4-yl]-amine] | > 10000
24 | Fc1ccc(CNc2ccnc(-c3cccnc3F)n2)c(F)c1 [Compound 212, (2,4-Difluoro-benzyl)-[2-(2-fluoro-pyridin-3-yl)-pyrimidin-4-yl]-amine] | 1000 to 10000
25 | N#Cc1cncc(-c2nccc(NCc3ncccc3F)n2)c1 [Compound 213, 5-{4-[(3-Fluoro-pyridin-2-ylmethyl)-amino]-pyrimidin-2-yl}-nicotinonitrile] | 1000 to 10000
26 | COc1cncc(-c2nccc(NCc3ncccc3F)n2)c1 [Compound 214, (3-Fluoro-pyridin-2-ylmethyl)-[2-(5-methoxy-pyridin-3-yl)-pyrimidin-4-yl]-amine] | 100 to 1000
27 | N#Cc1cncc(-c2ncc(C(F)(F)F)c(NCc3ccc(F)cc3F)n2)c1 [Compound 215, 5-[4-(2,4-Difluoro-benzylamino)-5-trifluoromethyl-pyrimidin-2-yl]-nicotinonitrile] | > 10000
28 | COc1cncc(-c2nccc(NCc3ccc4[nH]c(=O)[nH]c4c3)n2)c1 [Compound 216, 5-{[2-(5-Methoxy-pyridin-3-yl)-pyrimidin-4-ylamino]-methyl}-1,3-dihydro-benzoimidazol-2-one] | > 10000
29 | Fc1ccc(CNc2ccnc(-c3ccc(F)nc3)n2)c(F)c1 [Compound 217, (2,4-Difluoro-benzyl)-[2-(6-fluoro-pyridin-3-yl)-pyrimidin-4-yl]-amine] | > 10000
30 | COc1cncc(-c2nccc(NCc3cc[nH]n3)n2)c1 [Compound 218, [2-(5-Methoxy-pyridin-3-yl)-pyrimidin-4-yl]-(1H-pyrazol-3-ylmethyl)-amine] | 1000 to 10000
31 | FC(F)(F)c1cncc(-c2nccc(NCc3ccccn3)n2)c1 [Compound 219, Pyridin-2-ylmethyl-[2-(5-trifluoromethyl-pyridin-3-yl)-pyrimidin-4-yl]-amine] | 100 to 1000
